pIC50: −log10 of the molar value. The source made the active and inactive calls. No cut-off for these calls is given here.

The values that follow come from ChEMBL document CHEMBL3045909, “Synthesis and antitumor studies of novel benzopyrano-1,2,3-selenadiazole and spiro[benzopyrano]-1,3,4-thiadiazoline derivatives” (Med Chem Res, 2013).

Data set [1] concerns HepG2. The experiment in a line: Cytotoxicity against Homo sapiens (human) HepG2 cells assessed as inhibition of cell survival after 96 hr. It is filed as functional, cell-based. Particulars: HepG2, 96 h.
Data set [2] concerns MCF7. Put plainly: Cytotoxicity against Homo sapiens (human) MCF7 cells assessed as inhibition of cell survival after 96 hr. Particulars: MCF7, 96 h. It is filed as functional, cell-based.
The test system of data set [3] is WI-38. The experiment in a line: Cytotoxicity against Homo sapiens (human) WI38 cells assessed as inhibition of cell survival after 96 hr. It is filed as functional, cell-based. Particulars: WI-38, 96 h.
For data set [4], the system named is Vero. Put plainly: Cytotoxicity against Chlorocebus aethiops (African green monkey) Vero cells assessed as inhibition of cell survival after 96 hr. The class given is functional, cell-based. Particulars: Chlorocebus sabaeus.
Data set [5] is described as follows: Antitumor activity against Ehrlich ascites carcinoma cells xenografted in Swiss albino Mus musculus (mouse) assessed as carcinoma cell viability at 20 mg/kg, ip qd for 5 days administered at 24 hr after tumour cell inoculation by trypan blue assay (reference value: 220x10^6/ml). It is filed as functional. The conditions noted are these: route intraperitoneal.

The test system of data set [6] is Ehrlich. Put plainly: Antitumor activity against Ehrlich ascites carcinoma cells xenografted in Swiss albino Mus musculus (mouse) assessed as decrease in tumour size at 20 mg/kg, ip qd for 9 days administered at 24 hr after tumour cell inoculation. It is filed as functional, organism-based. The arrangement: dose 20 mg/kg.
Data set [7] is described as follows: Antitumor activity against Ehrlich ascites carcinoma cells xenografted in Swiss albino Mus musculus (mouse) assessed as mean survival time at 20 mg/kg, ip qd for 9 days administered at 24 hr after tumour cell inoculation (reference value: 9.10/day). Particulars: route intraperitoneal. The class given is functional.
The test system of data set [8] is Mus musculus. Put plainly: Increase in hemoglobin content in Ehrlich ascites carcinoma xenografted Swiss albino Mus musculus (mouse) blood at 20 mg/kg, ip qd for 9 days administered at 24 hr after tumour cell inoculation measured on day 14 post-tumor cell implantation (reference value: 8.70 g/dl). The class given is functional. Particulars: route intraperitoneal.

In data set [9] the test system is Mus musculus. Put plainly: Acute toxicity in Ehrlich ascites carcinoma xenografted Swiss albino Mus musculus (mouse) assessed as decrease in locomotor activity at >500 mg/kg, ip qd for 9 days administered at 24 hr after tumour cell inoculation. The class given is organism-based. The conditions noted are these: in vivo.
Data set [10] can be described thus: Acute toxicity in ip dosed Ehrlich ascites carcinoma xenografted Swiss albino Mus musculus (mouse) assessed as mortality administered once a day for 9 days at 24 hr after tumour cell inoculation. It is filed as organism-based. The conditions noted are these: in vivo.
The test system of data set [11] is Ehrlich. The experiment in a line: Antitumor activity against Ehrlich ascites carcinoma cells xenografted in Swiss albino Mus musculus (mouse) assessed as decrease in tumour size at 50 mg/kg, ip qd for 9 days administered at 24 hr after tumour cell inoculation. The class given is functional, organism-based. The arrangement: dose 50 mg/kg.
A short description of data set [12]: Antitumor activity against Ehrlich ascites carcinoma cells xenografted in Swiss albino Mus musculus (mouse) assessed as increase in lifespan at 20 mg/kg, ip qd for 9 days administered at 24 hr after tumour cell inoculation. The conditions noted are these: route intraperitoneal. It is filed as functional.
The subject of data set [13] is Mus musculus. Put plainly: Neurotoxicity in Ehrlich ascites carcinoma xenografted Swiss albino Mus musculus (mouse) assessed as effect on tremor, twitch, jumping, drowsy at >500 mg/kg, ip qd for 9 days administered at 24 hr after tumour cell inoculation. The conditions noted are these: in vivo. The class given is toxicity, organism-based.
Data set [14] concerns Ehrlich. The experiment in a line: Antitumor activity against Ehrlich ascites carcinoma cells xenografted in Swiss albino Mus musculus (mouse) assessed as decrease in abdominal ascites at 20 mg/kg, ip qd for 9 days administered at 24 hr after tumour cell inoculation. The class given is functional, organism-based. The arrangement: dose 20 mg/kg.
Data set [15] deals with Ehrlich. Put plainly: Antitumor activity against Ehrlich ascites carcinoma cells xenografted in Swiss albino Mus musculus (mouse) assessed as decrease in abdominal ascites at 50 mg/kg, ip qd for 9 days administered at 24 hr after tumour cell inoculation. The class given is functional, organism-based. Further details: dose 50 mg/kg.
Data set [16] relates to Mus musculus. Put plainly: Increase in hematocrit content in Ehrlich ascites carcinoma xenografted Swiss albino Mus musculus (mouse) blood at 20 mg/kg, ip qd for 9 days administered at 24 hr after tumour cell inoculation measured on day 14 post-tumor cell implantation (reference value: 35.50%). The class given is functional. Particulars: route intraperitoneal.
In data set [17] the test system is Mus musculus. Put plainly: Increase in hematocrit content in Ehrlich ascites carcinoma xenografted Swiss albino Mus musculus (mouse) blood at 50 mg/kg, ip qd for 9 days administered at 24 hr after tumour cell inoculation measured on day 14 post-tumor cell implantation (reference value: 35.50%). It is filed as functional. Particulars: route intraperitoneal.
Data set [18] in a line: Antitumor activity against Ehrlich ascites carcinoma cells xenografted in Swiss albino Mus musculus (mouse) assessed as mean survival time at 50 mg/kg, ip qd for 9 days administered at 24 hr after tumour cell inoculation (reference value: 9.10/day). It is filed as functional. The conditions noted are these: route intraperitoneal.
A short description of data set [19]: Antitumor activity against Ehrlich ascites carcinoma cells xenografted in Swiss albino Mus musculus (mouse) assessed as increase in lifespan at 50 mg/kg, ip qd for 9 days administered at 24 hr after tumour cell inoculation. It is filed as functional. The conditions noted are these: route intraperitoneal.
Data set [20] in a line: Antitumor activity against Ehrlich ascites carcinoma cells xenografted in Swiss albino Mus musculus (mouse) assessed as carcinoma cell viability at 50 mg/kg, ip qd for 5 days administered at 24 hr after tumour cell inoculation by trypan blue assay (reference value: 220x10^6/ml). It is filed as functional. Particulars: route intraperitoneal.
Data set [21] concerns Mus musculus. The experiment in a line: Increase in hemoglobin content in Ehrlich ascites carcinoma xenografted Swiss albino Mus musculus (mouse) blood at 50 mg/kg, ip qd for 9 days administered at 24 hr after tumour cell inoculation measured on day 14 post-tumor cell implantation (reference value: 8.70 g/dl). It is filed as functional. Particulars: route intraperitoneal.

In general, pIC50 refers to the negative decadic logarithm of the IC50, by convention in mol/L. With `CC(=O)NC1=NN(C(C)=O)C2(CC3(CCCC3)Oc3ccc(OC(C)=O)cc32)S1` (stereo not drawn), the pIC50 in data set [1] was 4.30; in data set [2], 4.30; in data set [3], 4.40; in [4], 4.40.
Take `NC(=S)N/N=C1\CC2(CCCC2)Oc2ccc(O)cc21`: the negative-log IC50 (pIC50) in data set [1] was 4.00; in data set [2], 4.00; in data set [3], 4.00; in data set [4], 4.05.
As for `CCC1(C)C/C(=N\NC(N)=S)c2cc(O)ccc2O1` (stereo not drawn), the pIC50 in data set [1], in [2], in data set [3] and in data set [4] was 4.22 throughout.
In the case of `CC(=O)NC1=NN(C(C)=O)C2(CC3(CCCCC3)Oc3ccc(OC(C)=O)cc32)S1` (stereo not drawn), the pIC50 in [1] is 4.15; in data set [2] it was 4.10; in data set [3], 4.10; in data set [4], 4.10.
Regarding `O=C1CC2(CCCCCC2)Oc2ccc(O)cc21`, the negative logarithm of the IC50 (pIC50) in [1] was 2.84; in data set [2], 2.82; in data set [3] it was 2.84; in [4], 2.88.
As to `NC(=O)N/N=C1\CC2(CCCCC2)Oc2ccc(O)cc21`, the pIC50 was 3.82 in [1], 4.15 in data set [2], 3.80 in data set [3] and 4.10 in data set [4].
Take `CC1(C)C/C(=N\NC(N)=S)c2cc(O)ccc2O1`: the negative logarithm of the IC50 (pIC50) in [1] is 3.85; in [2], 3.85; in data set [3] it was 3.92; in data set [4] it was 3.82.
With `CCC1(C)C/C(=N\NC(N)=O)c2cc(O)ccc2O1` (stereo not drawn), the negative logarithm of the IC50 (pIC50) in [1] was 4.22; in [2], 4.15; in [3], 4.15; in data set [4], 4.30.
`Oc1ccc2c(c1)-c1nn[se]c1C1(CCCCCC1)O2`: the pIC50 in [1] is 2.94; in [2], 2.83; in data set [3], 2.79; in data set [4], 2.92.
On to `CCC1(C)CC2(SC(NC(C)=O)=NN2C(C)=O)c2cc(OC(C)=O)ccc2O1` (stereo not drawn), for which the negative-log IC50 (pIC50) was 3.21 in [1], 3.00 in data set [2], 3.08 in [3] and 3.20 in data set [4].
For `NC(=S)N/N=C1\CC2(CCCCC2)Oc2ccc(O)cc21`, the pIC50 in data set [1] was 3.09; in data set [2], 2.87; in data set [3], 2.95; in [4] it was 3.08.
As to `CC1(C)CC(=O)c2cc(O)ccc2O1`, the negative-log IC50 (pIC50) was 3.32 in [1], 3.39 in data set [2], 3.37 in data set [3] and 3.38 in data set [4].
The term LD50 denotes the dose expected to kill half of the subjects tested. `CCC1(C)Oc2ccc(O)cc2-c2nn[se]c21` (stereo not drawn): the pIC50 in data set [1] is 4.30; in [2], 4.22; in [3], 4.30; in [4], 4.22. Also, the Activity in [5] is 107 ×10⁶ /ml; in data set [8] it was 10.5 g/dL; in [9] it was “Toxic”; in data set [12], 73.63%; in data set [13], “Non-toxic”; in data set [16] it was 43.7%. For the same molecule, the inhibition result in [6], in data set [11], in [14] and in data set [15] was “Active” each time. In addition, the MST in data set [7] was 15.8 days. The LD50 at 9 days in data set [10] came to 247 mg/kg.
Take `Oc1ccc2c(c1)-c1nn[se]c1C1(CCCC1)O2`: the pIC50 in [1] was 4.22; in data set [2], 4.22; in data set [3], 4.15; in data set [4] it was 4.22.
Turning to `NC(=O)N/N=C1\CC2(CCCCCC2)Oc2ccc(O)cc21`, the negative logarithm of the IC50 (pIC50) in [1], in data set [2], in data set [3] and in [4] was 2.95 each time.
Take `CC1(C)Oc2ccc(O)cc2-c2nn[se]c21`: the negative-log IC50 (pIC50) in data set [1] is 4.22; in data set [2], 4.22; in [3], 4.15; in data set [4], 4.30.
For the molecule `NC(=S)N/N=C1\CC2(CCCCCC2)Oc2ccc(O)cc21`, the pIC50 in data set [1] was 2.84; in data set [2] it was 2.79; in data set [3], 2.82; in data set [4], 2.84.
Regarding `CC(=O)NC1=NN(C(C)=O)C2(CC(C)(C)Oc3ccc(OC(C)=O)cc32)S1` (stereo not drawn), the negative-log IC50 (pIC50) in data set [1], in data set [2], in [3] and in [4] was 4.52 each time. The Activity in data set [5] is 110 ×10⁶ /ml; in data set [8] it was 11.9 g/dL; in data set [9], “Toxic”; in data set [12], 98.9%; in data set [13], “Non-toxic”; in [16], 45%. The inhibition result in [6], in data set [11], in data set [14] and in data set [15] was “Active” throughout. Also, the MST in data set [7] was 18.1 days. Further, in data set [10], the median lethal dose (LD50) at 9 days stood at 248 mg/kg.
In the case of `CC1(C)C/C(=N\NC(N)=O)c2cc(O)ccc2O1`, the negative logarithm of the IC50 (pIC50) in [1] is 3.92; in data set [2] it was 3.82; in data set [3] it was 3.85; in data set [4] it was 3.77.
Turning to `Oc1ccc2c(c1)-c1nn[se]c1C1(CCCCC1)O2`, the negative logarithm of the IC50 (pIC50) is 4.05 in data set [1], 3.92 in data set [2], 3.96 in data set [3] and 4.00 in data set [4].
For `CCC1(C)CC(=O)c2cc(O)ccc2O1` (stereo not drawn), the pIC50 in [1], in data set [2], in data set [3] and in [4] was 3.82 each time.
On to `O=c1[nH]cc(F)c(=O)[nH]1` [FLUOROURACIL], for which the negative logarithm of the IC50 (pIC50) in data set [1] is 4.15; in data set [2] it was 4.70; in data set [3], 4.70. In addition, the Activity was 42.3% in [17], 72.53% in data set [19], 123 ×10⁶ /ml in [20] and 10 g/dL in data set [21]. For the same molecule, in data set [18], the MST turned out to be 15.7 days.
For `NC(=O)N/N=C1\CC2(CCCC2)Oc2ccc(O)cc21`, the negative-log IC50 (pIC50) in data set [1] is 4.00; in data set [2] it was 3.96; in [3] it was 4.00; in data set [4], 4.05.
Regarding `O=C1CC2(CCCC2)Oc2ccc(O)cc21`, the pIC50 is 3.34 in data set [1], 3.19 in data set [2], 3.29 in data set [3] and 3.13 in data set [4].
As to `O=C1CC2(CCCCC2)Oc2ccc(O)cc21`, the negative-log IC50 (pIC50) in data set [1] was 3.72; in data set [2], 4.05; in data set [3], 3.68; in data set [4], 4.05.
